How the values were obtained:
[1] = biological target: T1, N-NLP7(1–581) (GST-N-NLP7-8xHIS) (Arabidopsis thaliana, UniProt Q84TH9); test: microscale thermophoresis; format: binding
T1 sequence (Q84TH9 1-581): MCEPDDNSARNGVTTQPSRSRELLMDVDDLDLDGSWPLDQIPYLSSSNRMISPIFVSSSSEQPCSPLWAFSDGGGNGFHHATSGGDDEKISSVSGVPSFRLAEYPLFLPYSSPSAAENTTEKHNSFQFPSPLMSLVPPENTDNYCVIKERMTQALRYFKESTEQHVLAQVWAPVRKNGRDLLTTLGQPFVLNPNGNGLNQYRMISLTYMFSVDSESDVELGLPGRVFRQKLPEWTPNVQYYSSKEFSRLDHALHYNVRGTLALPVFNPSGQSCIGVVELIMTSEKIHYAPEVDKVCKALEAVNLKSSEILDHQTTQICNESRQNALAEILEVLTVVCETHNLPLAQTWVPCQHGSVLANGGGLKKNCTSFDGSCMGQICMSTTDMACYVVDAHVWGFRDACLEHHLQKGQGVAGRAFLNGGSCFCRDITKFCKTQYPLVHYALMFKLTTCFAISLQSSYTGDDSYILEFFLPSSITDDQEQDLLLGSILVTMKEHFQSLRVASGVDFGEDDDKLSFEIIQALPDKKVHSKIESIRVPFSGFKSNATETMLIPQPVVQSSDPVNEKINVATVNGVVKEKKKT

NLP7 (GST-NLP7-8xHIS) = biological target: T2, NLP7 (GST-NLP7-8xHIS) (Arabidopsis thaliana, UniProt Q84TH9); test: microscale thermophoresis; format: binding
T2 sequence (Q84TH9 1-959): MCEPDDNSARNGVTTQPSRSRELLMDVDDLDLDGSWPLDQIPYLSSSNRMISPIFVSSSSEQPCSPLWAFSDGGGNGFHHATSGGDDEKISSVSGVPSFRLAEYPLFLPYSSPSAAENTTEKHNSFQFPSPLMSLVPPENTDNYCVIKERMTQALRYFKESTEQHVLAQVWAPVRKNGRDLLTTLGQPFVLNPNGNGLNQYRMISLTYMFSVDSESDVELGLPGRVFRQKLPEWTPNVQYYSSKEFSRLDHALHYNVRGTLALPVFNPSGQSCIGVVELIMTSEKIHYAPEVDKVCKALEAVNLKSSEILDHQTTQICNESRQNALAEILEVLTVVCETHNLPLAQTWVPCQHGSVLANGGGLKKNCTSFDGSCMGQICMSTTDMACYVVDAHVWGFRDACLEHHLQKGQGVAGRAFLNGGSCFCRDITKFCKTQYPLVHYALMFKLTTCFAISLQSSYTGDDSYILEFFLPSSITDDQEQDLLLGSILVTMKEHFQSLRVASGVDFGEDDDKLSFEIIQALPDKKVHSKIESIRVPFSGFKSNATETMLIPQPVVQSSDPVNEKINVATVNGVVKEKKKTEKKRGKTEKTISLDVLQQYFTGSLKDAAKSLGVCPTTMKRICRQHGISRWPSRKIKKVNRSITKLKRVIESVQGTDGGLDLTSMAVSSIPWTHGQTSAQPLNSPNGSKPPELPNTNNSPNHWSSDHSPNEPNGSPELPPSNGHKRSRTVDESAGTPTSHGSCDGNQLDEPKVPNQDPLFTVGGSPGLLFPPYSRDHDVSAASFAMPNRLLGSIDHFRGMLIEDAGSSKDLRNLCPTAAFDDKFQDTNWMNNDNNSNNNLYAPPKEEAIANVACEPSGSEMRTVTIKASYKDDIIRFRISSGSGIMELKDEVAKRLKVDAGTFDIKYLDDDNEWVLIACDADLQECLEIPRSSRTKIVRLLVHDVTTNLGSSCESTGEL

Kd [1]: 86 ± 38 µM | Kd (NLP7 (GST-NLP7-8xHIS)): 52 ± 20 µM
SMILES: O=[N+]([O-])O [nitrate]

Source: PMC9628810 (Science (New York, N.Y.), 2022)
